Assay results: ChEMBL document CHEMBL4616654, “Irpexine, an Isoindolinone Alkaloid Produced by Coculture of Endophytic Fungi, Irpex lacteus and Phaeosphaeria oryzae” (J Nat Prod, 2020)
Active and inactive are the calls of the source.

Experiments:
HeLa = assay: Cytotoxicity against human HeLa cells at 50 uM; format: functional, cell-based
Escherichia coli = assay: Antimicrobial activity against Escherichia coli at 50 uM; format: functional, organism-based
Bacillus cereus = assay: Antimicrobial activity against Bacillus cereus at 50 uM; format: functional, organism-based
Candida albicans = assay: Antifungal activity against Candida albicans at 50 uM; format: functional, organism-based

Measured: Activity

CC(C)=CCc1ccc(O)c(C2c3c(O)cc(C(=O)O)cc3C(=O)N2CCO)c1O (stereo not drawn)
inactive: HeLa | Escherichia coli | Bacillus cereus | Candida albicans

O=c1c2cc3c(CO)cc4cc(O)cc(O)c4c3oc-2cc2cc(O)cc(O)c12
inactive: HeLa | Escherichia coli | Bacillus cereus | Candida albicans
